# Tests used:
# Experiment in all cases: relative viability (nuclei count vs DMSO), 5 days (fraction); higher = more cells survive
# EHT 1864 = compound: C1COCCN1CC2=CC(=O)C(=CO2)OCCCCCSC3=C4C=CC(=CC4=NC=C3)C(F)(F)F [EHT 1864]
# In short: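 MetaXpress counted nuclei in 4× images of lung cancer cell lines that had been fixed, permeabilised and Hoechst-stained in one step. Before that, cells in 1536-well plates were kept overnight at 37 °C, pinned with five √10-spaced library-drug doses on vehicle-anchored plates, and cultured 5 days without medium change. Viability takes treated-well nuclei over vehicle-well nuclei and uses the median across plates. Plates were accepted only at control CV below 25% and at least one doubling.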
# EHT 1864 + Trametinib = compound: C1COCCN1CC2=CC(=O)C(=CO2)OCCCCCSC3=C4C=CC(=CC4=NC=C3)C(F)(F)F [EHT 1864] + CC(=O)Nc1cccc(-n2c(=O)n(C3CC3)c(=O)c3c(Nc4ccc(I)cc4F)n(C)c(=O)c(C)c32)c1 [Trametinib] (partner 0.02 µM)
# In short: (§1)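 Nuclei were stained with Hoechst during a one-step fixation (final 0.05% Triton X-100, 1% formaldehyde, 1 ug/ml Hoechst) carried out 5 days after dosing, then counted on 4× images. The cells, lung cancer lines in 1536-well plates, had been dosed by pin tool the day after seeding with one drug alone or a fixed anchor-drug dose plus five library-drug doses (not always all listed) in √10 steps. Relative viability is the nuclei count in treated wells divided by that in vehicle wells, and each value is the median of duplicate plates.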
# EHT 1864 + Palbociclib = compound: C1COCCN1CC2=CC(=O)C(=CO2)OCCCCCSC3=C4C=CC(=CC4=NC=C3)C(F)(F)F [EHT 1864] + CC(=O)c1c(C)c2cnc(Nc3ccc(N4CCNCC4)cn3)nc2n(C2CCCC2)c1=O [Palbociclib] (partner 0.5 µM)
# In short: as §1
# EHT 1864 + Luminespib = compound: C1COCCN1CC2=CC(=O)C(=CO2)OCCCCCSC3=C4C=CC(=CC4=NC=C3)C(F)(F)F [EHT 1864] + CCNC(=O)c1noc(-c2cc(C(C)C)c(O)cc2O)c1-c1ccc(CN2CCOCC2)cc1 [Luminespib] (partner 0.01 µM)
# In short: as §1
# EHT 1864 + Foretinib = compound: C1COCCN1CC2=CC(=O)C(=CO2)OCCCCCSC3=C4C=CC(=CC4=NC=C3)C(F)(F)F [EHT 1864] + COc1cc2c(Oc3ccc(NC(=O)C4(C(=O)Nc5ccc(F)cc5)CC4)cc3F)ccnc2cc1OCCCN1CCOCC1 [Foretinib] (partner 0.25 µM)
# In short: as §1
# EHT 1864 + OSI-027 = compound: C1COCCN1CC2=CC(=O)C(=CO2)OCCCCCSC3=C4C=CC(=CC4=NC=C3)C(F)(F)F [EHT 1864] + COc1cccc2cc(-c3nc([C@H]4CC[C@H](C(=O)O)CC4)n4ncnc(N)c34)[nH]c12 [OSI-027] (partner 0.5 µM)
# In short: as §1
# EHT 1864 + Tozasertib = compound: C1COCCN1CC2=CC(=O)C(=CO2)OCCCCCSC3=C4C=CC(=CC4=NC=C3)C(F)(F)F [EHT 1864] + Cc1cc(Nc2cc(N3CCN(C)CC3)nc(Sc3ccc(NC(=O)C4CC4)cc3)n2)n[nH]1 [Tozasertib] (partner 0.1 µM)
# In short: as §1
# EHT 1864 + Dasatinib = compound: C1COCCN1CC2=CC(=O)C(=CO2)OCCCCCSC3=C4C=CC(=CC4=NC=C3)C(F)(F)F [EHT 1864] + Cc1nc(Nc2ncc(C(=O)Nc3c(C)cccc3Cl)s2)cc(N2CCN(CCO)CC2)n1 [Dasatinib] (partner 0.075 µM)
# In short: as §1
# EHT 1864 + Phenformin = compound: C1COCCN1CC2=CC(=O)C(=CO2)OCCCCCSC3=C4C=CC(=CC4=NC=C3)C(F)(F)F [EHT 1864] + N=C(N)NC(=N)NCCc1ccccc1 [Phenformin] (partner 250 µM)
# In short: as §1
# EHT 1864 + AZD7762 = compound: C1COCCN1CC2=CC(=O)C(=CO2)OCCCCCSC3=C4C=CC(=CC4=NC=C3)C(F)(F)F [EHT 1864] + NC(=O)Nc1cc(-c2cccc(F)c2)sc1C(=O)N[C@H]1CCCNC1 [AZD7762] (partner 0.2 µM)
# In short: as §1
# EHT 1864 + Pemetrexed = compound: C1COCCN1CC2=CC(=O)C(=CO2)OCCCCCSC3=C4C=CC(=CC4=NC=C3)C(F)(F)F [EHT 1864] + Nc1nc2[nH]cc(CCc3ccc(C(=O)N[C@@H](CCC(=O)O)C(=O)O)cc3)c2c(=O)[nH]1 [Pemetrexed] (partner 0.2 µM)
# In short: as §1
# EHT 1864 + Decitabine = compound: C1COCCN1CC2=CC(=O)C(=CO2)OCCCCCSC3=C4C=CC(=CC4=NC=C3)C(F)(F)F [EHT 1864] + Nc1ncn([C@H]2C[C@H](O)[C@@H](CO)O2)c(=O)n1 [Decitabine] (partner 2 µM)
# In short: as §1
# EHT 1864 + Vorinostat = compound: C1COCCN1CC2=CC(=O)C(=CO2)OCCCCCSC3=C4C=CC(=CC4=NC=C3)C(F)(F)F [EHT 1864] + O=C(CCCCCCC(=O)Nc1ccccc1)NO [Vorinostat] (partner 1 µM)
# In short: as §1
# EHT 1864 + Olaparib = compound: C1COCCN1CC2=CC(=O)C(=CO2)OCCCCCSC3=C4C=CC(=CC4=NC=C3)C(F)(F)F [EHT 1864] + O=C(c1cc(Cc2n[nH]c(=O)c3ccccc23)ccc1F)N1CCN(C(=O)C2CC2)CC1 [Olaparib] (partner 8 µM)
# In short: as §1
cell line,measurement,setting,value
SW 900,relative viability,EHT 1864; 0.04 µM,0.942
same,relative viability,EHT 1864; 0.4 µM,0.929
same,relative viability,EHT 1864; 1.265 µM,0.929
same,relative viability,EHT 1864; 4 µM,0.782
same,relative viability,EHT 1864 + Trametinib; first compound 0.04 µM,0.686
same,relative viability,EHT 1864 + Trametinib; first compound 0.4 µM,0.77
same,relative viability,EHT 1864 + Trametinib; first compound 1.265 µM,0.796
same,relative viability,EHT 1864 + Trametinib; first compound 4 µM,0.758
same,relative viability,EHT 1864 + Palbociclib; first compound 0.04 µM,0.515
same,relative viability,EHT 1864 + Palbociclib; first compound 0.4 µM,0.586
same,relative viability,EHT 1864 + Palbociclib; first compound 1.265 µM,0.573
same,relative viability,EHT 1864 + Palbociclib; first compound 4 µM,0.498
same,relative viability,EHT 1864 + Luminespib; first compound 0.04 µM,0.177
same,relative viability,EHT 1864 + Luminespib; first compound 0.4 µM,0.181
same,relative viability,EHT 1864 + Luminespib; first compound 1.265 µM,0.177
same,relative viability,EHT 1864 + Luminespib; first compound 4 µM,0.145
same,relative viability,EHT 1864 + Foretinib; first compound 0.04 µM,0.524
same,relative viability,EHT 1864 + Foretinib; first compound 0.4 µM,0.862
same,relative viability,EHT 1864 + Foretinib; first compound 1.265 µM,0.89
same,relative viability,EHT 1864 + Foretinib; first compound 4 µM,0.687
same,relative viability,EHT 1864 + OSI-027; first compound 0.04 µM,0.555
same,relative viability,EHT 1864 + OSI-027; first compound 0.4 µM,0.548
same,relative viability,EHT 1864 + OSI-027; first compound 1.265 µM,0.583
same,relative viability,EHT 1864 + OSI-027; first compound 4 µM,0.483
same,relative viability,EHT 1864 + Tozasertib; first compound 0.04 µM,0.531
same,relative viability,EHT 1864 + Tozasertib; first compound 0.4 µM,0.49
same,relative viability,EHT 1864 + Tozasertib; first compound 1.265 µM,0.577
same,relative viability,EHT 1864 + Tozasertib; first compound 4 µM,0.481
same,relative viability,EHT 1864 + Dasatinib; first compound 0.04 µM,0.809
same,relative viability,EHT 1864 + Dasatinib; first compound 0.4 µM,0.684
same,relative viability,EHT 1864 + Dasatinib; first compound 1.265 µM,1.02
same,relative viability,EHT 1864 + Dasatinib; first compound 4 µM,0.552
same,relative viability,EHT 1864 + Phenformin; first compound 0.04 µM,0.435
same,relative viability,EHT 1864 + Phenformin; first compound 0.4 µM,0.569
same,relative viability,EHT 1864 + Phenformin; first compound 1.265 µM,0.521
same,relative viability,EHT 1864 + Phenformin; first compound 4 µM,0.597
same,relative viability,EHT 1864 + AZD7762; first compound 0.04 µM,0.582
same,relative viability,EHT 1864 + AZD7762; first compound 0.4 µM,0.681
same,relative viability,EHT 1864 + AZD7762; first compound 1.265 µM,0.632
same,relative viability,EHT 1864 + AZD7762; first compound 4 µM,0.59
same,relative viability,EHT 1864 + Pemetrexed; first compound 0.04 µM,0.477
same,relative viability,EHT 1864 + Pemetrexed; first compound 0.4 µM,0.463
same,relative viability,EHT 1864 + Pemetrexed; first compound 1.265 µM,0.473
same,relative viability,EHT 1864 + Pemetrexed; first compound 4 µM,0.446
same,relative viability,EHT 1864 + Decitabine; first compound 0.04 µM,0.449
same,relative viability,EHT 1864 + Decitabine; first compound 0.4 µM,0.419
same,relative viability,EHT 1864 + Decitabine; first compound 1.265 µM,0.46
same,relative viability,EHT 1864 + Decitabine; first compound 4 µM,0.504
same,relative viability,EHT 1864 + Vorinostat; first compound 0.04 µM,0.54
same,relative viability,EHT 1864 + Vorinostat; first compound 0.4 µM,0.531
same,relative viability,EHT 1864 + Vorinostat; first compound 1.265 µM,0.589
same,relative viability,EHT 1864 + Vorinostat; first compound 4 µM,0.467
same,relative viability,EHT 1864 + Olaparib; first compound 0.04 µM,0.73
same,relative viability,EHT 1864 + Olaparib; first compound 0.4 µM,0.907
same,relative viability,EHT 1864 + Olaparib; first compound 1.265 µM,0.857
same,relative viability,EHT 1864 + Olaparib; first compound 4 µM,0.803

# From the supplement of paper PMC10307832
